Laboratory results reported in patent US11840686B2, “Modulation of prekallikrein (PKK) expression” (Ionis Pharmaceuticals, Inc., priority 2013, dated 2023).
Strand notation (5' to 3'): a small letter for the sugar, then the base; units joined by * are phosphorothioate-linked, units joined directly phosphodiester-linked; [ ] holds rarer units or linkages, { } end groups; capitals alone tell only the bases. e = 2'-O-(2-methoxyethyl) (MOE); k = constrained ethyl (cEt); [5mC] = 5-methylcytosine; d = 2'-deoxy (DNA)

Key:
[1] = system: PKK protein; experiment: Plasma PKK protein levels in human KLKB1 transgenic mice (Example 7); format: in vivo; conditions: plasma, twice a week for 3 weeks
Description: (§1) Transgenic mice containing a 37,390 base pair fragment of the human KLKB1 gene sequence (chromosome 4: position 187148672-187179625, accession no: NC_000004.11) were treated with ISIS antisense oligonucleotides selected from studies described above, which were evaluated for efficacy in this model.
(§2) Groups of transgenic mice were injected subcutaneously twice a week for 3 weeks with 2.5 mg/kg/week, 5.0 mg/kg/week, 10 mg/kg/week or 20 mg/kg/week of ISIS 546232, ISIS 546251, ISIS 546254, ISIS 546343, ISIS 546828, ISIS 547455, ISIS 547457, ISIS 547927, and ISIS 548048. One group of transgenic mice was injected subcutaneously twice a week for 3 weeks with PBS. Mice were euthanized 48 hours after the last dose, and organs and plasma were harvested for further analysis.
Plasma PKK protein levels were evaluated in all groups. Results are presented as percent inhibition of PKK protein, relative to PBS control.

[2] = system: human PKK mRNA; experiment: Antisense inhibition of human PKK mRNA in HepaRG cells, 1,000 nM, MOE/deoxy/cEt oligonucleotides (Example 3); format: cell-based; conditions: HepaRG cells, electroporation with 1,000 nM antisense oligonucleotide, approximately 24 hours, primer probe set RTS3454, relative to untreated control cells; experiment of Table 24
In short: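 HepaRG cells at 20,000 per well electroporated with 1,000 nM 16-mer MOE/cEt/deoxy gapmers (phosphorothioate, 5-methylcytosine). After about 24 h, PKK mRNA measured by qRT-PCR with primer probe set RTS3454, normalized to RIBOGREEN total RNA. Reported as percent inhibition versus untreated cells.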

[3] = system: human PKK mRNA; experiment: Dose-dependent antisense inhibition of human PKK in HepaRG cells, 0.11-3.00 uM (Example 6); format: cell-based; conditions: electroporation, approx. 16 hours, relative to untreated control cells
In short: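 HepaRG cells were electroporated with antisense oligonucleotide at 0.11, 0.33, 1.00 or 3.00 μM. After about 16 h, PKK mRNA was quantified by qRT-PCR with primer probe set RTS3454 and normalized to total RNA by RIBOGREEN. IC50 was derived from the dose series.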

[4] = system: PKK mRNA; experiment: PKK mRNA in cynomolgus monkey liver (Example 8); format: in vivo; conditions: 40 mg/kg s.c., loading then weekly to week 13; day 87 or 88, 48 h after final dose
Description: Cynomolgus monkeys were treated with ISIS antisense oligonucleotides selected from studies described above. Antisense oligonucleotide efficacy and tolerability were evaluated. The human antisense oligonucleotides tested are cross-reactive with the rhesus genomic sequence (GENBANK Accession No. NW_001118167.1 truncated from nucleotides 2358000 to 2391000 and designated herein as SEQ ID NO: 18).
On day 87 or 88, 48 hours after the final dose, RNA was extracted from liver tissue for real-time PCR analysis of PKK using primer probe set RTS3455 (forward sequence […], designated herein as SEQ ID NO: 23; reverse sequence […], designated herein as SEQ ID NO: 24; probe sequence […], designated herein as SEQ ID NO: 25). The results were normalized to the housekeeping gene, Cyclophilin. Results are presented as percent inhibition of PKK mRNA, relative to PBS control.

[5] = system: human PKK mRNA; experiment: Human PKK mRNA in liver of human KLKB1 transgenic mice (Example 7); format: in vivo; conditions: twice a week for 3 weeks
Description: as §1, §2
To evaluate the effect of ISIS oligonucleotides on target reduction, RNA was extracted from liver tissue for real-time PCR analysis of human PKK. Results are presented as percent inhibition of PKK mRNA, relative to PBS control.

[6] = system: PKK protein; experiment: PKK protein in cynomolgus monkey plasma by ELISA (Example 8); format: in vivo; conditions: 40 mg/kg sc
Description: Approximately 0.9 mL of blood was collected each time from all available animals at pre-dose, day 17, day 31, day 45, day 59, and day 73, and placed in tubes containing 3.2% sodium citrate. The tubes were centrifuged (3000 rpm for 10 min at room temperature) to obtain plasma. PKK protein levels were measured in the plasma by ELISA. The results are presented in Table 52, expressed as percentage inhibition compared to the PBS control levels.

[7] = cynomolgus monkey, in vivo, sc, 40 mg/kg
Description: (§3) Prior to the study, the monkeys were kept in quarantine for a 30-day period, during which the animals were observed daily for general health. The monkeys were 2-4 years old and weighed between 2 and 4 kg. Ten groups of four randomly assigned male cynomolgus monkeys each were injected subcutaneously with ISIS oligonucleotide or PBS. PBS solution or ISIS oligonucleotides at a dose of 40 mg/kg were administered initially with a loading regimen consisting of four doses on the first week of the study (days 1, 3, 5, and 7), followed by a maintenance regimen consisting of once weekly administration starting on Day 14 (weeks 2 to 13). Subcutaneous injections were performed in clock-wise rotations at 4 sites on the back; one site per dose. The injection sites were delineated by tattoo, while sedated using ketamine, and were separated by a minimum of 3 cm.
To evaluate any effect of ISIS oligonucleotides in cynomolgus monkeys on hematologic parameters, blood samples of approximately 1.2 mL of blood was collected pre-dose and on day 87 or day 88 from each of the available study animals in tubes containing K2-EDTA. Samples were analyzed for red blood cell (RBC) count, white blood cells (WBC) count, platelet count, hemoglobin content and hematocrit, using an ADVIA2120i hematology analyzer (SIEMENS, USA).

[8] = cynomolgus monkey, in vivo, sc, 40 mg/kg; remark: listed apart in the source
[9] = cynomolgus monkey, in vivo, sc, 40 mg/kg; remark: listed apart in the source
Description: as §3
To evaluate the effect of ISIS oligonucleotides on hepatic function, the monkeys were fasted overnight. Approximately, 1.5 mL of blood samples were collected from all the study groups. Blood was collected in tubes without anticoagulant for serum separation. The tubes were kept at room temperature for a minimum of 90 min and then centrifuged at 3,000 rpm for 10 min. Levels of various liver function markers were measured using a Toshiba 120FR NEO chemistry analyzer (Toshiba Co., Japan).

[10] = cynomolgus monkey, in vivo, sc, 40 mg/kg; remark: listed apart in the source
[11] = cynomolgus monkey, in vivo, sc, 40 mg/kg; remark: listed apart in the source
Description: as §3
To evaluate the effect of ISIS oligonucleotides on kidney function, the monkeys were fasted overnight. Approximately, 1.5 mL of blood samples were collected from all the study groups. Blood was collected in tubes without anticoagulant for serum separation. The tubes were kept at room temperature for a minimum of 90 min and then centrifuged at 3,000 rpm for 10 min. Levels of BUN and creatinine were measured using a Toshiba 120FR NEO chemistry analyzer (Toshiba Co., Japan).

Row | Substance | PKK protein level reduction (%) in plasma relative to control levels ([6]; Day 17) [%] | PKK protein level reduction (%) in plasma relative to control levels ([6]; Day 31) [%] | PKK protein level reduction (%) in plasma relative to control levels ([6]; Day 45) [%] | PKK protein level reduction (%) in plasma relative to control levels ([6]; Day 59) [%] | PKK protein level reduction (%) in plasma relative to control levels ([6]; Day 73) [%] | HCT [7] [%] | Hemoglobin [7] [g/dL] | Platelets [7] [µL⁻¹] | RBC [7] [µL⁻¹] | WBC [7] [µL⁻¹] | C3 (% of baseline) [8] | CRP [8] [mg/dL] | ALT [9] [IU/L] | AST [9] [IU/L] | Albumin [9] [g/dL] | Urine protein/creatinine ratio [10] | Plasma BUN [11] [mg/dL] | Plasma Creatinine [11] [mg/dL] | also measured
1 | 548048 (e[5mC]*eG*kA*dT*dA*dT*d[5mC]*dA*dT*dG*dA*dT*dT*k[5mC]*k[5mC]*e[5mC]) [compound 548048] |  |  |  |  |  |  |  |  |  |  |  |  |  |  |  |  |  |  | % inhibition of PKK protein levels in the transgenic mice relative to the PBS control ([1]; 2.5 mg/kg/week sc): 23%; % inhibition of PKK protein levels in the transgenic mice relative to the PBS control ([1]; 5 mg/kg/week sc): 70%; % inhibition of PKK protein levels in the transgenic mice relative to the PBS control ([1]; 10 mg/kg/week sc): 89%; % inhibition of PKK protein levels in the transgenic mice relative to the PBS control ([1]; 20 mg/kg/week sc): 98%; % inhibition [2]: 84%; percent inhibition of PKK mRNA, 0.11 μM ([3]; 0.11 μM): 49%; percent inhibition of PKK mRNA, 0.33 μM ([3]; 0.33 μM): 66%; percent inhibition of PKK mRNA, 1.00 μM ([3]; 1.00 μM): 86%; percent inhibition of PKK mRNA, 3.00 μM ([3]; 3.00 μM): 92%; % inhibition of PKK mRNA in the cynomolgus monkey liver relative to the PBS control [4]: 95%; % inhibition of PKK mRNA in the transgenic mice liver relative to the PBS control ([5]; 2.5 mg/kg/week sc): 7%; % inhibition of PKK mRNA in the transgenic mice liver relative to the PBS control ([5]; 5 mg/kg/week sc): 77%; % inhibition of PKK mRNA in the transgenic mice liver relative to the PBS control ([5]; 10 mg/kg/week sc): 72%; % inhibition of PKK mRNA in the transgenic mice liver relative to the PBS control ([5]; 20 mg/kg/week sc): 80%
2 | ISIS 546232: antisense oligonucleotide targeting human PKK; sequence in a table not shown (antisense AGGAACTTGGTGTGCCACTT; 5-10-5 MOE gapmer, further chemistry not given here) | 53 | 58 | 72 | 75 | 70 | 42 | 12.9 | 391000 | 5.4e+06 | 11000 | 50 % of baseline | 0.5 | 140 | 63 | 4.1 | 0.03 | 22.7 | 1.0 | 
3 | ISIS 546251: antisense oligonucleotide targeting nucleobases 27427-27466 of SEQ ID NO: 10; sequence in a table not shown (antisense GGCAAACATTCACTCCTTTA; 5-10-5 MOE gapmer, further chemistry not given here) | 71 | 75 | 75 | 81 | 77 | 43 | 12.9 | 419000 | 5.7e+06 | 8000 | 62 % of baseline | 0.7 | 58 | 51 | 3.7 | 0.12 | 25.4 | 1.1 | 
4 | ISIS 546828: gapmer targeting human PKK, selected from earlier screens; sequence in a table not shown (ACAGTATCACTGTACTAGTT; gapmer, wing chemistry not given here) | 0 | 8 | 23 | 39 | 39 | 43 | 12.9 | 408000 | 6e+06 | 11000 | 56 % of baseline | 0.6 | 67 | 75 | 3.7 | 0.03 | 24.7 | 0.9 | 
5 | ISIS 547455: antisense oligonucleotide targeting nucleobases 30570-30610 of SEQ ID NO: 10; sequence in a table not shown (ATATCATGATTCCCTTCTGA; 5-10-5 MOE gapmer, further chemistry not given here) | 26 | 33 | 43 | 58 | 58 | 34 | 10.2 | 448000 | 4.5e+06 | 13000 | 64 % of baseline | 1.9 | 61 | 56 | 3.8 | 0.70 | 29.4 | 0.9 | 
